{"source": "patent US6534514B1", "about": "“Kappa opioid receptor antagonists” (Regents of the University of Minnesota, priority 1993, dated 2003)", "key": {"kappa opioid receptors": {"molecular_target": "T1, kappa opioid receptors (Cavia porcellus, UniProt P41144)", "T1 construct": "a strip of longitudinal muscle with the myenteric plexus attached was prepared; from tissue; host or cells: guinea pig ileal longitudinal muscle with myenteric plexus (Dunkin-Hartley males)", "T1 sequence (P41144 whole entry)": "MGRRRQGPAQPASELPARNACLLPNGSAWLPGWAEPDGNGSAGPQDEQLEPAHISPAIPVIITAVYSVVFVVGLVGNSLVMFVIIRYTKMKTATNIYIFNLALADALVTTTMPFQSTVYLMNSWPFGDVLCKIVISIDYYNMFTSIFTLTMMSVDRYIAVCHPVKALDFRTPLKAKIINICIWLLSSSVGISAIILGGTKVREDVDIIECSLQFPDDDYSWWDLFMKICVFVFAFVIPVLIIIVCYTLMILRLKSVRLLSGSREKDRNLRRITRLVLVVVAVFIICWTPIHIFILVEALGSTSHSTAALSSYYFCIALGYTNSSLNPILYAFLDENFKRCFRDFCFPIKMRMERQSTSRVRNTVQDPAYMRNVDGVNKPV", "test": "Guinea pig ileal longitudinal muscle (GPI), antagonism of ethylketazocine (EK)", "assay_type": "cell-based", "protocol": "(§1) Physiological data for guinea pig ileal longitudinal muscle (GPI) was obtained by the methodology of H. P. Rang, “Stimulant Actions of Volatile Anaesthetics on Smooth Muscle,” Brit. […] In vivo assays were done s.c. on mice.\n(§2) 1. Guinea Pig Ileal Longitudinal Muscle (GPI). Ilea from guinea pigs were taken approximately 10 cm from the ileocecal junction, and a strip of longitudinal muscle with the myenteric plexus attached was prepared by the method of […] et al., Brit. […] A 1 cm portion of this strip was then mounted between two platinum electrodes placed in a 10 ml organ bath and connected to an isometric transducer; contractions were recorded on a polygraph. Contractions of the ileal strip were initiated by supramaximal rectangular pulses in all preparations (80 V of 0.5 ms duration at a frequency of 0.1 Hz). […] The organ bath was maintained at 36°-37° C. The longitudinal muscle strip was allowed to equilibrate with continuous stimulation for a minimum of 90 min. Cumulative concentration-response curves were determined after drugs were added to the bath in preselected amounts and washed out with buffer after noting their maximum effects.\n(§3) Concentration-response curves were obtained in the absence (control) and the presence of the antagonist are expressed as IC50 values. The IC50 ratio represents the IC50 in the presence of the antagonist divided by the control IC50 value in the same tissue. Therefore, a high IC50 ratio represents a correspondingly high degree of antagonism at a particular receptor. This IC50 ratio was employed to calculate the Ke value using the equation Ke=[antagonist]/(IC50 ratio-1). Therefore, a low Ke represents a correspondingly high degree of binding at a particular receptor."}, "mu opioid receptors [1]": {"molecular_target": "mu opioid receptors", "details": "antagonist 100 nM; agonist morphine", "protocol": "as §1, §2, §3"}, "mu opioid receptors [2]": {"molecular_target": "T2, mu opioid receptors (Mus musculus, UniProt P42866)", "T2 construct": "tested in vivo using the mouse writhing procedure of G. Hayashi et al; from tissue; host or cells: whole mouse in vivo (s.c. dosing)", "T2 sequence (P42866 whole entry)": "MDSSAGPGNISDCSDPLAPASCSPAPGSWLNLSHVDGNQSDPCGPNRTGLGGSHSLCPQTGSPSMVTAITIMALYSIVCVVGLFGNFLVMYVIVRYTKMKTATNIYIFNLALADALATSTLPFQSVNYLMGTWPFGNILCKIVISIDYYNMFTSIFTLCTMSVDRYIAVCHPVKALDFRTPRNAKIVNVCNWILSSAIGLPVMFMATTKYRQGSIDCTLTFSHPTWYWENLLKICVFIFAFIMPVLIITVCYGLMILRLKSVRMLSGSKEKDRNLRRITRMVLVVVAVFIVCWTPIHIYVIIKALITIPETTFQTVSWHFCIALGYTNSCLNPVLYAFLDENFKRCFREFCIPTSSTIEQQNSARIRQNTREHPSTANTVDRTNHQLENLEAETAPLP", "test": "Mouse writhing procedure, antagonism of morphine", "assay_type": "in vivo", "details": "mice; agonist 50 nmol; antagonist 4 mg/kg sc", "from_the_text": "(§4) Physiological data for guinea pig ileal longitudinal muscle (GPI) was obtained by the methodology of H. P. Rang, “Stimulant Actions of Volatile Anaesthetics on Smooth Muscle,” Brit. J. Pharmacol., 22, 356 (1964) on Dunkin-Hartley males; mouse vas deferens (MVD) data was obtained using Henderson's method on Swiss-Webster males (G. Henderson et al., “A New Example of a Morphine-Sensitive Neuroeffector Junction: Adrenergic Transmission in the Mouse vas Deferens,” Brit. J. Pharmacol., 46, 764 (1972). Guinea pig brain membrane binding assays were done on Dunkin-Hartley males using a modification of the method of L. L. Werling et al., “Opioid Binding to Rat and Guinea Pig Neural Membranes in the Presence of Physiological Cations at 37° C.,” J. Pharmacol. Exp. Ther., 233 722 (1985). In vivo assays were done s.c. on mice.\n(§5) Compound δ was tested in vivo using the mouse writhing procedure of G. Hayashi et al., Eur. J. Pharmacol., 85, 163 (1982)."}, "delta opioid receptors [3]": {"molecular_target": "T3, delta opioid receptors (Mus musculus, UniProt P32300)", "T3 sequence (P32300 whole entry)": "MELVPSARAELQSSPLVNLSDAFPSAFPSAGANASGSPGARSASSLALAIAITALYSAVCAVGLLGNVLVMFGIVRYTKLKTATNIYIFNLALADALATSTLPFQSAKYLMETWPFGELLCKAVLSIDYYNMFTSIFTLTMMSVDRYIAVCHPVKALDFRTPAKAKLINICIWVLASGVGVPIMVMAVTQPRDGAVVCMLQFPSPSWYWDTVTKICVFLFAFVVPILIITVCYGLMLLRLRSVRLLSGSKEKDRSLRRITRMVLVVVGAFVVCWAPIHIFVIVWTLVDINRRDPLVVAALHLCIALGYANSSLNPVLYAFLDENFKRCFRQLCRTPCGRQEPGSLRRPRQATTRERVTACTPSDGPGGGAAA", "test": "Mouse writhing procedure, antagonism of DADLE", "assay_type": "in vivo", "details": "mice; agonist 50 nmol; antagonist 4 mg/kg sc", "from_the_text": "as §4, §5"}, "kappa receptors": {"molecular_target": "T4, kappa receptors (Mus musculus, UniProt P33534)", "T4 construct": "tested in vivo using the mouse writhing procedure of G. Hayashi et al; from tissue; host or cells: whole mouse in vivo (s.c. dosing)", "T4 sequence (P33534 whole entry)": "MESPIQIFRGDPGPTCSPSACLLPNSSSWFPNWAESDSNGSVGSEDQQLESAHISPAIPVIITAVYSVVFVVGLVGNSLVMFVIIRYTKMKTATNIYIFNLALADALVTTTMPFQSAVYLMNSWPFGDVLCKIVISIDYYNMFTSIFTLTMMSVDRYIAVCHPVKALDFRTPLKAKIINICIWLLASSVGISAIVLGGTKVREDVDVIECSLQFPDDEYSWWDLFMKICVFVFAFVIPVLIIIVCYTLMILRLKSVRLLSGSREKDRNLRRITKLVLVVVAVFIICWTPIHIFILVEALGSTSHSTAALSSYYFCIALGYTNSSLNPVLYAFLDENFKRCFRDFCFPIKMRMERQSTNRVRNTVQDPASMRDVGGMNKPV", "test": "Mouse writhing procedure, antagonism of U50488H", "assay_type": "in vivo, mice", "from_the_text": "as §4, §5"}, "delta opioid receptors [4]": {"molecular_target": "T3, delta opioid receptors", "test": "Mouse vas deferens (MVD), antagonism of DADLE (D)", "assay_type": "cell-based", "parameters": "Both vasa deferentia were dissected out of mice and mounted singly; from tissue; host or cells: mouse vas deferens (Swiss-Webster males) for A3; whole mouse in vivo for A7", "details": "antagonist 100 nM; agonist DADLE", "protocol": "2. Mouse Vas Deferens (MVD). This assay was performed according to the description by G. Henderson et al., Brit. […] Both vasa deferentia were dissected out of mice and mounted singly through two platinum ring electrodes in a 10 ml organ bath. The bath contained Krebs bicarbonate solution that was continuously bubbled with 95% O2 and 5% CO2. The organ bath was maintained at 37° C. The tissue was attached to an isometric transducer and stimulated transmurally with rectangular pulses ([…], 1 ms duration, supramaximal voltage). Drugs were added cumulatively to the bath in preselected amounts and washed out after noting their maximum effects.\nas §3"}}}
{"substance": "17-(Cyclopropylmethyl)-6,7-dehydro-4,5α-epoxy-3,14-dihydroxy-5-[(N^2-pentanamidino)methyl]-6,7-2′,3′-indolomorphinan Dihydrochloride [Compound 6]", "values": [{"measurement": "Selectivity κ/μ", "setting": "kappa opioid receptors; GPI EK versus GPI morphine", "value": 28}, {"measurement": "Selectivity κ/δ", "setting": "kappa opioid receptors; GPI EK versus MVD DADLE", "value": 93}, {"measurement": "kappa antagonist potency compared with norBNI", "setting": "kappa opioid receptors; GPI, EK", "value": "more potent"}, {"measurement": "kappa selectivity compared with norBNI", "setting": "kappa opioid receptors; GPI/MVD", "value": "more selective"}, {"measurement": "potency and selectivity compared with norBNI", "setting": "kappa opioid receptors; GPI/MVD", "value": "more potent and selective"}, {"measurement": "Kb", "setting": "kappa opioid receptors; antagonist 100 nM, 15 min incubation, agonist ethylketazocine, Ke=[antagonist]/(IC50 ratio-1)", "value": 0.23, "unit": "nM"}, {"measurement": "IC50 ratio, EK (GPI)", "setting": "kappa opioid receptors; antagonist 100 nM, IC50 agonist + antagonist/IC50 agonist, agonist ethylketazocine", "value": "439 ± 100"}, {"measurement": "IC50 ratio, M (GPI)", "setting": "mu opioid receptors [1]", "value": "15.7 ± 4.0"}, {"measurement": "Ke, M (GPI)", "setting": "mu opioid receptors [1]", "value": 6.80, "unit": "nM"}, {"measurement": "ED50 ratio [(agonist + 6)/agonist control], morphine", "setting": "mu opioid receptors [2]", "value": 1.63}, {"measurement": "ED50 ratio [(agonist + 6)/agonist control], DADLE", "setting": "delta opioid receptors [3]", "value": 0.25}, {"measurement": "ED50 ratio [(agonist + 6)/agonist control], U50488H", "setting": "kappa receptors; mice, agonist 50 nmol, antagonist 4 mg/kg sc", "value": 3.77}, {"measurement": "antagonist selectivity in the whole animal model", "setting": "kappa receptors; mouse writhing, 4 mg/kg sc", "value": "selective kappa antagonist"}, {"measurement": "IC50 ratio, D (MVD)", "setting": "delta opioid receptors [4]", "value": "4.71 ± 1.06"}, {"measurement": "Ke, D (MVD)", "setting": "delta opioid receptors [4]", "value": 26.9, "unit": "nM"}]}
